Test system: sPLA2
Details: CHEC-9 0.4 μM, LY31127 5.0 μM, whole blood, two 90 min periods at 4°

SMILES: CCc1c(CC(N)=O)c2cc(OCCCP(=O)(O)O)ccc2n1Cc1ccccc1 [LY311727]
- comparison of sPLA2 inhibition by the inhibitors alone and in sequence: equally effective inhibitors

— patent publication US8785401B2, “Methods for treating diseases having an inflammatory component related to phospholipase A2” (Philadelphia Health & Education Corporation, priority 2005, dated 2014)
